Several values for one entry are separate records, joined by “and”; a condition that tells them apart may be missing. Equal entries are not always repeated.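 In this assay, cells in 96-well plates receive the compound at five concentrations for 48 hours. Endpoints are linearly interpolated between the surrounding concentrations. GI50 marks 50% less growth. TGI is the concentration that stops growth completely.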 Where a SMILES comes first, the peptide text is derived from it. [ ]: non-standard residue; d: D form. The star is where a group is joined. Phe(4-NO2) = N[CH](Cc1ccc([N+](=O)[O-])cc1)C(=O)O; Boc = CC(C)(C)OC(=O)*
What was measured:
Experiment in all cases: NCI tumour cell line growth inhibition, 48 h
HL-60(TB) leukemia = test system: HL-60(TB) leukemia
OVCAR-3 ovarian = test system: OVCAR-3 ovarian
NCI-H226 lung = test system: NCI-H226 lung
SF-268 CNS = test system: SF-268 CNS
T-47D breast = test system: T-47D breast
U251 CNS = test system: U251 CNS
786-0 renal = test system: 786-0 renal
LOX IMVI melanoma = test system: LOX IMVI melanoma
COLO 205 colon = test system: COLO 205 colon

SMILES	TGI (HL-60(TB) leukemia)	TGI (OVCAR-3 ovarian) [µM]	TGI (NCI-H226 lung) [µM]	TGI (SF-268 CNS) [µM]	TGI (T-47D breast) [µM]	TGI (U251 CNS) [µM]	TGI (786-0 renal) [µM]	TGI (LOX IMVI melanoma) [µM]	GI50 (HL-60(TB) leukemia) [µM]	GI50 (OVCAR-3 ovarian) [µM]	GI50 (NCI-H226 lung) [µM]	GI50 (COLO 205 colon) [µM]	TGI (COLO 205 colon) [µM]	GI50 (SF-268 CNS) [µM]	GI50 (T-47D breast) [µM]	GI50 (U251 CNS) [µM]	GI50 (LOX IMVI melanoma) [µM]
CC(=O)CC(=O)N1CCSC1=S	> 10 µM	> 10	> 10	> 10	> 10	> 10	> 10	> 10									
COc1cc2nc(N3CCC[C@H](NC4=CC(=O)c5ccccc5C4=O)C3)nc(N)c2cc1OC	4.04 µM	3.43	55.6	3.61	3.63	3.18			1.94	1.89	16.6	1.91	3.47	1.82	1.9	1.65	
O=CC(O)C(O)C(O)C(O)COC(=O)NCCCCC(=O)C(F)(F)C(F)(F)C(F)(F)C(F)(F)C(F)(F)C(F)(F)C(F)(F)F (stereo not given)	> 100 µM	> 100		93.5	> 100		> 100	30.1					61.7				
CC(C)(C)c1cc(OCc2nnc3sc(Cc4ccccc4)nn23)c(Cl)cc1OCc1nnc2sc(Cc3ccccc3)nn12	58.3 µM	> 100	> 100	> 100	38.5	34.6	46.7	> 100					> 100				
Cc1cc(C)c2c(c1)C/C(=C\c1cccc(C)c1C(=O)O)C2=O	> 100 µM	> 100	> 100	> 100	> 100		> 100	> 100									
COc1cc(S(=O)(=O)Nc2ccc(-c3csc(N4C(=O)C(Cl)C4c4ccccc4O)n3)cc2)ccc1Cl (stereo not given)	49.7 µM	> 100	> 100	> 100	29.5		> 100	3.56					90.1				
CCOC(=O)CCc1cn2cc(Br)nc(OC)c2n1	> 100 µM	> 100	> 100	> 100	> 100	> 100	> 100	> 100					> 100				
c1ccc2c[n+](CCCC[n+]3ccc4ccccc4c3)ccc2c1	> 100 µM	> 100	> 100	> 100	> 100	> 100	> 100	> 100					> 100				
O=c1cc(N2CCOCC2)n2c(ccc3ccccc32)n1	> 100 µM	> 100	> 100	> 100	> 100	> 100	> 100	> 100					> 100				
C/C(=N\Nc1nc2ccccc2[nH]1)c1ncccn1	0.0343 µM	6.7		> 93.3	> 100	> 100	> 100	> 100					> 49.6				
O=[N+]([O-])c1ccc(N2N=C(c3c(O)ccc4ccccc34)CC2c2ccc(Cl)cc2)c([N+](=O)[O-])c1 (stereo not given)		> 100	> 100	> 100	> 100	> 100	> 100						29.5				
COc1cccc2c1OC1c3ccccc3OCC1(O)C2 (stereo not given)		> 100	> 100	> 100	> 100	> 100	> 100	> 100					> 100				
Oc1ccc(Cl)cc1-c1cc(-c2ccccc2)nc(=S)[nH]1	> 100 µM	> 100	> 100	77.7	> 100	39.8	64	> 100					> 100				
Cn1c2ccc(Cl)cc2c2ccc3c(c21)C(=O)C=CC3=O	> 10 µM	> 10	> 10	> 10	> 10	> 10	> 10	> 10					> 10				
S=C1C(=Nc2ccccc2)N(c2ccccc2)/C(=N\c2cccc[n+]2Cc2ccccc2)N1c1ccccc1		54.3	40.4	48.4	61.7		30						34.9				
COC(=O)/C=C\n1nc(Br)c(=O)[nH]c1=O	> 100 µM	> 100		> 100	> 100	> 100		> 100					> 100				
COc1cccc(C(C#N)NNC(=O)c2c(Cl)c(Cl)c(Cl)c(Cl)c2-c2nc3ccc(C(=O)c4ccccc4)cc3[nH]2)c1O (stereo not given)	> 100 µM		8.43		> 100	> 100	> 100	> 100					> 100				
Cc1nc2ccc(Br)cc2c(=O)n1-c1ccc(N)cc1	> 100 µM	> 100	> 100	> 100			> 100	> 100					> 100				
[N-]=[N+]=Nc1nc2ccccc2c(N=[N+]=[N-])c1Cl	> 100 µM	> 100		> 100	> 100	> 100	> 100	> 100					> 100				
CC(=O)OCC1OC(SC2=NC(=O)CS2)C(OC(C)=O)C(OC(C)=O)C1OC(C)=O (stereo not given)	91.2 µM and 70.7 µM	> 100	> 100	> 100	> 100		> 100	> 100									
COC(=O)c1c2c(cc3c1CC1(Cc4cc5c(c(C)c4C1)CCC5)C3)CCC2 (stereo not given)	> 100 µM	> 100		> 100	> 100	> 100	> 100	> 100									
O=c1[nH]n(CCc2ccccc2CCl)c2ccc([N+](=O)[O-])cc12	> 100 µM	> 100	> 100	> 100		> 100	> 100	> 100					> 100				
C=CC(C)(C)/C=C/c1ccc(O)cc1	> 100 µM	> 100		> 100	95	> 100	> 100	45.6					> 100				
CC(CCc1nc2ccccc2s1)(c1ccc(O)cc1)c1ccc(O)cc1		31.3	41.1	40.5	95.2	27.7	30.2	29.4									

SMILES	TGI (HL-60(TB) leukemia)	TGI (OVCAR-3 ovarian) [µM]	TGI (NCI-H226 lung) [µM]	TGI (SF-268 CNS) [µM]	TGI (T-47D breast) [µM]	TGI (U251 CNS) [µM]	TGI (786-0 renal) [µM]	TGI (LOX IMVI melanoma) [µM]	GI50 (HL-60(TB) leukemia) [µM]	GI50 (OVCAR-3 ovarian) [µM]	GI50 (NCI-H226 lung) [µM]	GI50 (COLO 205 colon) [µM]	TGI (COLO 205 colon) [µM]	GI50 (SF-268 CNS) [µM]	GI50 (T-47D breast) [µM]	GI50 (U251 CNS) [µM]	GI50 (LOX IMVI melanoma) [µM]
O=Nc1c(-c2c(O)[nH]c3ccc(I)cc23)[nH]c2ccccc12	6.96 µM	> 57.3		25.9	> 69.8	> 40.9	> 35.1	> 24.5					> 100				
O=C(O)Cn1c2c(c3c1-c1ccccc1C3=O)C(=O)CCC2	> 100 µM	> 100	> 100	> 100	> 100	> 100		> 100	> 100	> 100	> 100	> 100	> 100	> 100	> 100	> 100	> 100
COc1ccc(/C=c2\[nH]c3nc(=O)c(N4CCCCC4)c(N)n3c2=O)cc1	> 100 µM		> 100	> 100	> 100	> 100	> 100	> 100					> 100				
Cc1cc2c(c(C(=O)NCC(=O)O)c1)Oc1c(cc(C)cc1C(=O)NCC(=O)O)S2		> 100	> 100	> 100	> 100	> 100	> 100	> 100					> 100				
Cc1ccc(S(=O)(=O)OCCC2CN(C(=O)OCc3ccccc3)C(C)(C)O2)cc1 (stereo not given)	30 µM	> 100	4.35			> 100	> 100	> 100					> 100				
O=C1CC(c2ccsc2)n2cccc21 (stereo not given)	> 100 µM	> 100	> 100	> 100	> 100	> 100	> 100						> 100				
Cc1cn(C2CC(COCc3ccccc3)N(CCO[Si](C)(C)C(C)(C)C)O2)c(=O)[nH]c1=O (stereo not given)		28.4		35.7	31.1	62.5	> 100						28.4				
O=C1c2ccccc2C2(c3ccc(F)cc3)NCCN12 (stereo not given)	> 100 µM	> 100	> 100	> 100	> 100	> 100	> 100						> 100				
Cc1cc(S(=O)(=O)Nc2nc3cscc3c(=O)n2N)c(S)cc1Cl	> 100 µM	> 100	48.5	> 100		> 100	> 100	> 100					> 100				
C/C(=C\Cc1ccc(F)cc1)CCCCCC/C(C)=C/Cc1ccc(F)cc1		53.8		37.2		37.8	21.9	19.9					37.6				
Cc1ccc(-n2nncc2[Si](C)(C)C)s1		> 100	> 100	> 100	> 100	> 100	> 100	> 100					> 100				
CC(=O)/C=C/c1ccccc1	> 100 µM		91.2	> 100	> 100	> 100	49.1						> 100				
COc1ccc(OC)c2c(C)ccnc12		26	> 93.4	> 97.2	> 100	> 100	> 100	46.5					> 83.3				
O=C1CCCCC/C1=C\c1cccc(F)c1	> 100 µM	> 100		> 100	> 100	> 100	> 100						> 100				
O=C1C=CC(=O)c2c(O)c(N3CCOCC3)c(Cl)c(O)c21		1.31	3.34	3.19	4.36	2.62	0.84	0.419					0.395				
CCOC(=O)c1c(N2CCCC2)[nH]c(=O)c(C(c2ccc(N(C)C)cc2)c2c(O)c(C(=O)OCC)c(N3CCCC3)[nH]c2=O)c1O		> 100	> 100	> 100	> 100	> 100	> 100	> 100					> 100				
Nc1ccc2c(=O)cc(-c3ccc(Br)s3)[nH]c2n1		> 100	9.11	> 100	> 100	> 74.4	> 100	> 100					> 22.1				
O=C(Nc1ccc(-n2cc(-c3ccncc3)c(-c3ccc(O)c(Cl)c3)n2)cc1)c1ccc(Cl)c(C(F)(F)F)c1	12.5 µM	7.33	> 50	> 50	37.2	6.76		6.88	1.83	1.63	> 50	7.67	26	2.79	3.43	0.867	1.12
Cn1c2ccccc2n2c3ncccc3c(=O)cc12		> 100	> 100	> 100	> 100	> 100	> 100	> 100					> 100				
COc1cc2c3c(n(C)c(=O)c2cc1OC)-c1cc2c(cc1/C3=C\CCCCCBr)OCO2	20.3 µM			> 100	7.92	24.1	> 100	13.7					> 100				
O=C1Nc2cccc(Cl)c2/C1=C\c1c(-c2ccccc2)nc2n1CCS2	41.3 µM	43.5		66.9	48.9	47.4	36.2	36.3					39.5				
c1ccc2c(Nc3ncco3)cccc2c1		> 10	> 10	> 10	> 10	> 10	> 10	> 10					> 10				
CCOC(=O)CCC(NC(=O)C(Cc1ccc([N+](=O)[O-])cc1)NC(=O)OC(C)(C)C)C(=O)NC(CCC(=O)OCC)C(=O)OCC (stereo not given) (Boc-[Phe(4-NO2)]-Glu(OEt)-Glu(OEt)-OEt; configuration not given here)	44 µM		35.9			44.6	30.5						57.1				
CCOC(=O)C1CCC(=O)N1C(=O)c1cccc(Cl)c1 (stereo not given)	> 100 µM	> 100	> 100	> 100	> 100	> 100	> 100	> 100									
